Where “and” joins values, the source holds several entries; their conditions need not be identical. Equal values may be shown once. Toxic doses and inconclusive results are not listed.
Test system: P388 leukemia ip, CD2F1 mice, survival T/C
Test: NCI In Vivo Anticancer Drug Screen. Data for tumor model P388 Leukemia (intraperitoneal) in CD2F1 (CDF1) mice
Details: endpoint: median survival time, higher = longer survival
How it was run: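 Mice carrying the transplanted tumor received test compound or vehicle. Survival was recorded in each group, and the value is the treated-group measurement divided by that of the vehicle-treated control group.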

[1] = dose: 60.0 mg/kg/injection, schedule: Q01DX005 (ip), vehicle: Klucel (hydroxypropylcellulose) (HPC)
[2] = dose: 120.0 mg/kg/injection, schedule: Q01DX005 (ip), vehicle: Klucel (hydroxypropylcellulose) (HPC)
[3] = dose: 50.0 mg/kg/injection, schedule: Q01DX005 (ip), vehicle: Klucel (hydroxypropylcellulose) (HPC)
[4] = dose: 100.0 mg/kg/injection, schedule: Q01DX005 (ip), vehicle: Klucel (hydroxypropylcellulose) (HPC)
[5] = dose: 200.0 mg/kg/injection, schedule: Q01DX005 (ip), vehicle: Klucel (hydroxypropylcellulose) (HPC)
[6] = dose: 50.0 mg/kg/injection, schedule: Q01DX009 (ip), vehicle: saline with Tween-80
[7] = dose: 100.0 mg/kg/injection, schedule: Q01DX009 (ip), vehicle: saline with Tween-80
[8] = dose: 200.0 mg/kg/injection, schedule: Q01DX009 (ip), vehicle: saline with Tween-80
[9] = dose: 100.0 mg/kg/injection, schedule: Q01DX001 (ip), vehicle: saline with Tween-80
[10] = dose: 200.0 mg/kg/injection, schedule: Q01DX001 (ip), vehicle: saline with Tween-80
[11] = dose: 400.0 mg/kg/injection, schedule: Q01DX001 (ip), vehicle: saline with Tween-80

SMILES: C=C1C(=O)O[C@@H]2C[C@@]3(C)CCC[C@H](C)C3=C[C@H]12 (tested in a mixture with another compound)
- T/C (dose: 7.5 mg/kg/injection, schedule: Q01DX005 (ip), vehicle: saline + alcohol): 93 % of control
- T/C (dose: 15.0 mg/kg/injection, schedule: Q01DX005 (ip), vehicle: saline + alcohol): 94 % of control
- T/C (dose: 30.0 mg/kg/injection, schedule: Q01DX005 (ip), vehicle: saline + alcohol): 103 % of control
- T/C (dose: 60.0 mg/kg/injection, schedule: Q01DX005 (ip), vehicle: saline + alcohol): 100 % of control
- T/C (dose: 120.0 mg/kg/injection, schedule: Q01DX005 (ip), vehicle: saline + alcohol): 104 % of control

SMILES: O=C1NNC=Nc2nc3c(cc21)CCCC3
- T/C [1]: 98 % of control
- T/C [2]: 92 % of control
- T/C (dose: 240.0 mg/kg/injection, schedule: Q01DX005 (ip), vehicle: Klucel (hydroxypropylcellulose) (HPC)): 94 % of control

SMILES: COc1ccc2c(c1)OC(C)(C)C(c1ccccc1)C2c1ccc(OCCBr)c([N+](=O)[O-])c1 (centres undefined)
- T/C [3]: 101 % of control
- T/C [4]: 105 % of control
- T/C [5]: 97 % of control

SMILES: CC(=O)Nc1cc(Cl)cc2c1-c1ccc(Cl)cc1C2=O
- T/C [3]: 88 % of control
- T/C [4]: 94 % of control

SMILES: CC(C)OC(=O)NP1(=O)NCc2ccccc2CN1
- T/C [3]: 101 % of control
- T/C [4]: 103 % of control
- T/C [5]: 94 % of control

SMILES: C[C@H]1C/C=C/[C@H]2[C@@H]3O[C@]3(C)[C@@H](C)[C@H]3[C@H](Cc4ccccc4)NC(=O)[C@]32OC(=O)O/C=C/[C@@](C)(O)C1=O
- T/C (dose: 1.25 mg/kg/injection, schedule: Q01DX009 (ip), vehicle: Klucel (hydroxypropylcellulose) (HPC)): 99 % of control
- T/C (dose: 2.5 mg/kg/injection, schedule: Q01DX009 (ip), vehicle: Klucel (hydroxypropylcellulose) (HPC)): 94 % of control
- T/C (dose: 5.0 mg/kg/injection, schedule: Q01DX009 (ip), vehicle: Klucel (hydroxypropylcellulose) (HPC)): 97 % of control
- T/C (dose: 10.0 mg/kg/injection, schedule: Q01DX009 (ip), vehicle: Klucel (hydroxypropylcellulose) (HPC)): 88 % of control

SMILES: FC(F)(F)c1ccc2c(c1)N(CCCCl)c1ccccc1S2
- T/C (dose: 50.0 mg/kg/injection, schedule: Q04DX003 (ip), vehicle: saline): 94 % of control
- T/C (dose: 100.0 mg/kg/injection, schedule: Q04DX003 (ip), vehicle: saline): 99 % of control
- T/C (dose: 200.0 mg/kg/injection, schedule: Q04DX003 (ip), vehicle: saline): 104 % of control
- T/C (dose: 400.0 mg/kg/injection, schedule: Q04DX003 (ip), vehicle: saline): 98 % of control

SMILES: N=c1c2[nH]cnc2ncn1O
- T/C [1]: 92 % of control
- T/C [2]: 93 % of control

SMILES: On1cc/c(=N\N=C\c2ccc(N(CCCl)CCCl)cc2)c2ccc(Cl)cc21
- T/C [6]: 101 % of control
- T/C [7]: 101 % of control
- T/C [8]: 94 % of control

SMILES: CC(C(=O)O)C1(C(=O)O)CCCCCC1 (centres undefined)
- T/C [9]: 100 % of control
- T/C [10]: 93 % of control
- T/C [11]: 109 % of control

SMILES: Cc1ccc(S(=O)(=O)C(CC(=O)CCN(C)C)c2ccccc2)cc1 (centres undefined)
- T/C (dose: 25.0 mg/kg/injection, schedule: Q04DX002 (ip), vehicle: saline): 100 % of control
- T/C (dose: 50.0 mg/kg/injection, schedule: Q01DX009 (ip), vehicle: saline): 96 % of control
- T/C (dose: 50.0 mg/kg/injection, schedule: Q04DX002 (ip), vehicle: saline): 103 % of control and 95 % of control
- T/C (dose: 100.0 mg/kg/injection, schedule: Q01DX009 (ip), vehicle: saline): 102 % of control
- T/C (dose: 100.0 mg/kg/injection, schedule: Q04DX002 (ip), vehicle: saline): 100 % of control
- T/C (dose: 200.0 mg/kg/injection, schedule: Q04DX002 (ip), vehicle: saline): 100 % of control

SMILES: Cc1nn(-c2ccccc2)c2c1C(c1ccc(Cl)cc1)C(C#N)=C(N)O2 (centres undefined)
- T/C (dose: 50.0 mg/kg/injection, schedule: Q01DX009 (ip), vehicle: Klucel (hydroxypropylcellulose) (HPC)): 94 % of control
- T/C (dose: 100.0 mg/kg/injection, schedule: Q01DX009 (ip), vehicle: Klucel (hydroxypropylcellulose) (HPC)): 96 % of control

SMILES: O=c1[nH]c(=O)n(C2OC(CO)C(O)C2O)cc1F (centres undefined)
- T/C (dose: 0.62 mg/kg/injection, schedule: Q01DX009 (ip), vehicle: saline): 179 % of control
- T/C (dose: 0.79 mg/kg/injection, schedule: Q01DX009 (ip), vehicle: saline): 157 % of control
- T/C (dose: 1.0 mg/kg/injection, schedule: Q01DX005 (ip), vehicle: saline): 158 % of control
- T/C (dose: 1.57 mg/kg/injection, schedule: Q01DX009 (ip), vehicle: saline): 169 % of control
- T/C (dose: 2.0 mg/kg/injection, schedule: Q01DX005 (ip), vehicle: saline): 172 % of control
- T/C (dose: 2.5 mg/kg/injection, schedule: Q01DX009 (ip), vehicle: saline): 176 % of control and 205 % of control
- T/C (dose: 3.89 mg/kg/injection, schedule: Q04DX003 (ip), vehicle: saline): 157 % of control
- T/C (dose: 4.0 mg/kg/injection, schedule: Q01DX005 (ip), vehicle: saline): 185 % of control
- T/C (dose: 5.0 mg/kg/injection, schedule: Q01DX009 (ip), vehicle: saline): 189 % of control
- T/C (dose: 6.48 mg/kg/injection, schedule: Q04DX002 (ip), vehicle: saline): 150 % of control
- T/C (dose: 6.48 mg/kg/injection, schedule: Q04DX003 (ip), vehicle: saline): 159 % of control
- T/C (dose: 10.8 mg/kg/injection, schedule: Q04DX002 (ip), vehicle: saline): 160 % of control
- T/C (dose: 10.8 mg/kg/injection, schedule: Q04DX003 (ip), vehicle: saline): 175 % of control
- T/C (dose: 18.0 mg/kg/injection, schedule: Q04DX003 (ip), vehicle: saline): 186 % of control

SMILES: O=C(C[n+]1ccccc1)NC(O)C(Cl)(Cl)Cl (centres undefined)
- T/C (dose: 50.0 mg/kg/injection, schedule: Q01DX005 (ip), vehicle: saline): 106 % of control
- T/C (dose: 100.0 mg/kg/injection, schedule: Q01DX005 (ip), vehicle: saline): 105 % of control
- T/C (dose: 200.0 mg/kg/injection, schedule: Q01DX005 (ip), vehicle: saline): 109 % of control

SMILES: ClC1c2ccccc2-c2nsnc2C1Cl (centres undefined)
- T/C (dose: 25.0 mg/kg/injection, schedule: Q01DX009 (ip), vehicle: saline with Tween-80): 107 % of control
- T/C [6]: 90 % of control
- T/C [7]: 90 % of control
- T/C [8]: 100 % of control

SMILES: NC(CCCCNC(=S)S)C(=O)O.[Zn+2] (centres undefined)
- T/C [3]: 107 % of control
- T/C [4]: 107 % of control
- T/C [5]: 107 % of control

SMILES: N=c1nc(N)ncn1-c1ccccc1
- T/C (dose: 1.56 mg/kg/injection, schedule: Q01DX005 (ip), vehicle: saline with Tween-80): 99 % of control and 102 % of control
- T/C (dose: 3.13 mg/kg/injection, schedule: Q01DX005 (ip), vehicle: saline with Tween-80): 103 % of control and 104 % of control
- T/C (dose: 6.25 mg/kg/injection, schedule: Q01DX005 (ip), vehicle: saline with Tween-80): 99 % of control and 102 % of control
- T/C (dose: 12.5 mg/kg/injection, schedule: Q01DX005 (ip), vehicle: saline with Tween-80): 102 % of control and 104 % of control and 108 % of control

SMILES: CC(C)(O)c1ccccc1S(=O)c1ccccc1 (centres undefined)
- T/C (dose: 100.0 mg/kg/injection, schedule: Q01DX001 (ip), vehicle: Klucel (hydroxypropylcellulose) (HPC)): 101 % of control
- T/C (dose: 200.0 mg/kg/injection, schedule: Q01DX001 (ip), vehicle: Klucel (hydroxypropylcellulose) (HPC)): 100 % of control
- T/C (dose: 400.0 mg/kg/injection, schedule: Q01DX001 (ip), vehicle: Klucel (hydroxypropylcellulose) (HPC)): 92 % of control

SMILES: S=C1NCCNC(=S)SS1
- T/C [4]: 108 % of control

SMILES: CCCCCOC(=S)S
- T/C (dose: 9.37 mg/kg/injection, schedule: Q01DX009 (ip), vehicle: saline): 109 % of control
- T/C (dose: 9.37 mg/kg/injection, schedule: Q04DX003 (ip), vehicle: saline with Tween-80): 95 % of control
- T/C (dose: 18.75 mg/kg/injection, schedule: Q01DX009 (ip), vehicle: saline): 100 % of control
- T/C (dose: 18.75 mg/kg/injection, schedule: Q04DX003 (ip), vehicle: saline with Tween-80): 109 % of control
- T/C (dose: 37.5 mg/kg/injection, schedule: Q01DX009 (ip), vehicle: saline): 100 % of control
- T/C (dose: 37.5 mg/kg/injection, schedule: Q04DX003 (ip), vehicle: saline with Tween-80): 104 % of control

SMILES: Nc1cc2nc3ccccc3nc2cc1O
- T/C (dose: 50.0 mg/kg/injection, schedule: Q01DX005 (ip), vehicle: saline with Tween-80): 90 % of control
- T/C (dose: 100.0 mg/kg/injection, schedule: Q01DX005 (ip), vehicle: saline with Tween-80): 90 % of control
- T/C (dose: 200.0 mg/kg/injection, schedule: Q01DX005 (ip), vehicle: saline with Tween-80): 90 % of control

SMILES: Cc1ccc(N=Nc2c(O)n(-c3ccc(Br)cc3)c(=S)n(-c3ccccc3)c2=O)cc1
- T/C [9]: 95 % of control
- T/C [10]: 100 % of control
- T/C [11]: 90 % of control
